Entries after “also recorded” stand apart in the source; their conditions may differ. Marks after values point to notes of the source that are not given here.
Tests used:
[1] = tested on: rat morphine withdrawal model; experiment: Rat morphine withdrawal model (naloxone-precipitated); assay type: in vivo; conditions: rats, 25 mg/kg PO QD for 7 days
Procedure: The ability of (S)-AV1013 to reduce/ameliorate withdrawal behavior relative to a control was evaluated in rats. The study was conducted in accordance with the method disclosed by Hutchinson et. al., Brain Behavior and Immunity, V. 23, (2009), p 240-250.
Rats were administered morphine in escalating doses over a five day period to induce dependence (15-22.5 mg/kg/day). (S)-AV1013 (25 mg/kg PO QD) or vehicle (saline) administration was initiated two days prior and continued concomitant with the morphine dosing regimen for a total of 7-days. On day seven all animals were administered naloxone SC to precipitate withdrawal symptoms. Specific withdrawal behaviors were scored over 6×, 10 minute intervals. A total of 15 rats per group were evaluated.

[2] = Chiral and chemical stability in solution and on storage; assay type: physicochemical; conditions: for racemization in dosing solutions and bioanalytical solutions: saline vehicle, DMSO:methanol, 1:1
Description: Without ascribing to any particular theory, the present inventors believe that the facile separation of enantiomers using the N-protected racemate of AV1013 is probably due to the greater stability of the racemate as well as the separate enantiomers in protected form. […] Unstability also stems from the ability of the free base to self condense. Because self-condensation is promoted in concentrated solutions, it is desirable to avoid highly concentrated solutions of the free base form of optically active AV1013. Likewise, the free base form of racemic AV1013 or its hydrochloride salt are also unstable, precluding their use as precursors to obtaining (S)-AV1013 as a free base or its hydrochloride salt in high yield and/or high purity.
Thus, it is often desirable to re-purify the de-protected product using purification techniques known in the art. For example, any one or more of the methods described above for separating chiral molecules, such as, chromatography (e.g., HPLC, GC, and SFC), crystallization, fractional crystallization, and the like may be used for re-purification. An exemplary method is recrystallization. Purification by recrystallization allows separation of the desired (S)-enantiomer in high purity, such that the overall reaction sequence including isolation of the desired (S)-enantiomer requires only a single chromatographic step (i.e., the chiral separation). Recrystallization can be carried out in any of a number of single or mixed solvent systems including alcohols, ethers, esters, nitriles, halogenated hydrocarbons, amides and aqueous mixtures thereof. Suitable solvents include methanol, ethanol, propanol, iso-propanol, acetone, tetrahyrofuran, methyl ethyl ketone, methyl isobutyl ketone, ethyl acetate, amyl acetate, acetonitrile, diethyl ether, methyl tert-butyl ether, dichloromethane, dichloroethane, chloroform, dimethylformamide, and combinations thereof. Illustrative mixed solvent systems used to recrystallize (S)-AV1013 are iso-propanol/methyl tert-butyl ether and ethanol/methyl tert-butyl ether.
The five-step route provided a 15% overall yield of (S)-AV1013.HCl. The chiral separation, by SFC chromatography, is the only chromatographic step required. Hydrolysis of the N-protected (S)-AV1013, followed by recrystallization from iso-propanol/methyl tert-butyl ether provided (S)-AV1013.HCl in greater than 99% chemical purity and greater than 97% S-enantiomer (greater than 94% enantiomeric excess (ee)) by chiral HPLC, as determined from the equation ee=[|R−S^51÷(R+S)]×100 ee=[|R−S|÷(R+S)]×100. […] Even under optimal storage and handling conditions to minimize exposure to moisture, a small degree of racemization (i.e., approximately 2%) was observed. Recrystallization was effective to improve enantiomeric purity to arrive at a product having an illustrative chiral purity as described above. […] The recrystallized (S)-AV 1013.HCl contained approximately 25 mole percent alcohol (less than about 10% by weight) even when dried at 50° C. Thus, it appears that the resultant product is formed as a solvate under the recrystallization and drying conditions employed.

[3] = tested on: formalin paw model; experiment: Inflammatory pain model (formalin paw model) in mice; assay type: in vivo; conditions: for % Change from Control / Licking Score (Mean +/− SEM): mice
Procedure: The model employed is described in detail by Wheeler-Aceto et al (Psychopharmacology, 104, p 35-44, (1991)). Briefly, mice were given an intraplantar injection of 5% formalin (25 μl) into the posterior left paw. […] Mice were briefly observed at 1 minute intervals between 15 and 50 minutes after the injection of formalin and the number of times mice were observed licking the injected paw was recorded. 10 mice were studied in each group. The test was performed blind.
AV1013-S was evaluated at 3 doses (10, 25 and 50 mg/kg), administered p.o. 60 minutes before the test (i.e. 45 minutes before formalin), and compared with a vehicle control group. Gabapentin (300 mg/kg p.o.), administered under the same experimental conditions, was used as reference substance. The experiment therefore included 5 groups.
Data were analyzed by comparing treated groups with vehicle control using unpaired Mann-Whitney U tests.

[4] = 10 mg/kg p.o. 60 min before the test
[5] = 25 mg/kg p.o. 60 min before the test

## CC(C)c1nn2ccccc2c1C(=O)[C@H](C)N [(S)-AV1013, (S)-2-amino-1-(2-isopropylpyrazolo[1,5-a]pyridin-3-yl)propan-1-one]
[1]
  withdrawal behaviors relative to vehicle: reduced withdrawal behaviors; also recorded: reduced withdrawal symptoms relative to those receiving vehicle
[2]; free base (or hydrochloride salt where stated), in solution
  stability / racemization in solution: unstable and racemizes in solution; also recorded: racemizes slowly in solution
[2]
  racemization in dosing solutions and bioanalytical solutions: no detectable interconversion between the enantiomers
[2]; listed as (S)-enantiomer
  racemization in dosing solutions and bioanalytical solutions: no racemization has been documented
[3]; [4]
  % Change from Control: −16%
  Licking Score (Mean +/− SEM): 13.1 +/− 1.5
[3]; [5]
  % Change from Control: −16%
  Licking Score (Mean +/− SEM): 13.1 +/− 1.8
[3]; 50 mg/kg p.o. 60 min before the test, 50 mg/kg
  % Change from Control: −45%
[3]; 50 mg/kg p.o. 60 min before the test, p < 0.01
  Licking Score (Mean +/− SEM): 8.6 +/− 1.4 *
[3]; single oral dose of 50 mg/kg
  analgesic/anti-inflammatory activity in mouse formalin paw model (late-phase): demonstrated analgesic/anti-inflammatory activity
